Values of other authors, collected in patent US12569487B2, “Treatment of hidradenitis with jak inhibitors” (PFIZER INC., priority 2019, dated 2026).
Read-outs that look alike come from different tables or passages of the source.

Tested on: patients with moderate to severe HS
Details: for Clinical response rate (hidradenitis suppurativa clinical response, HiSCR): adalimumab weekly

Substance: adalimumab
- Clinical response rate (hidradenitis suppurativa clinical response, HiSCR) (PIONEER I, Week 12, placebo 26.0%, P=0.003, oral antibiotics stopped at least 28 days before baseline): 41.8%
- Clinical response rate (hidradenitis suppurativa clinical response, HiSCR) (PIONEER II, Week 12, placebo 27.6%, P<0.001, stable tetracycline-class antibiotics allowed): 58.9%
- Rank-ordered secondary outcomes (lesions, pain, modified Sartorius score) versus placebo (Week 12, in PIONEER II only): significantly greater improvement
- Patients with moderate to severe HS who did not respond to treatment (summary of the PIONEER trials): ~40%
